# Reference: article PMC3511469, “Five Different Piscidins from Nile Tilapia, Oreochromis niloticus: Analysis of Their Expressions and Biological Functions” (PLoS ONE, 2012)
# Where no end group is shown, it is not given here.
# Tests used:
# S. agalactiae 819 = type: cell-based, Streptococcus agalactiae; settings: 819, pH 7.4
# Method: (§1) Escherichia coli for transformation was cultured in LB medium at 37°C.
# (§2) Peptides were synthesized by GL Biochem (Shanghai, China) using a solid-phase procedure of Fmoc chemistry. Crude peptides were extracted, lyophilized, and purified by reverse-phase high-performance liquid chromatography (HPLC). The molecular masses and purities of the purified peptides were respectively verified by mass spectroscopy and HPLC. Synthetic peptides at >95% purity were reconstituted in phosphate-buffered saline (PBS; pH 7.4) for the experiments. The TP1 sequence was FDWDSVLKGVEGFVRGYF, the TP2 sequence was […], the TP3 sequence was […], the TP4 sequence was […], the TP5 sequence was […], the epinecidin-1 (Epi-1) sequence was […], and the cod pis 1 sequence was […]. C terminals of all synthetic peptides were amidated. The minimal inhibitory concentration (MIC) was measured for each strain of microorganism listed above. The MICs of the peptides were determined by a broth microdilution analysis based on an online method (http://cmdr.ubc.ca/bobh/methods/MODIFIEDMIC.html; Hancock Laboratory Methods. Department of Microbiology and Immunology, University of British Columbia, British Columbia, Canada) without modification.
# S. agalactiae BCRC 10787 = type: cell-based, Streptococcus agalactiae; settings: BCRC 10787, pH 7.4
# Method: as §1, §2
# P. aeruginosa ATCC 19660 = type: cell-based, Pseudomonas aeruginosa; settings: ATCC 19660, pH 7.4
# Method: as §1, §2
# V. alginolyticus = type: cell-based, Vibrio alginolyticus; settings: pH 7.4
# Method: as §1, §2
# A. hydrophila BCRC 13018 = type: cell-based, Aeromonas hydrophila; settings: BCRC 13018, pH 7.4
# Method: as §1, §2
# V. vulnificus 204 = type: cell-based, Vibrio vulnificus; settings: 204, pH 7.4
# Method: as §1, §2
# E. faecalis BCRC 10066 = type: cell-based, Enterococcus faecalis; settings: BCRC 10066, pH 7.4
# Method: as §1, §2
# [1] = test system: methicillin-resistant Staphylococcus aureus (MRSA); settings: in vitro assay; synthetic peptide; cited from earlier work
# Source text: Piscidins are cationic AMPs expressed by fish mast cells. […] The piscidin family includes pleurocidin, moronecidin, chrysophsin, dicentracin, epinecidin-1, and myxinidin. Piscidins have a widespread presence in higher teleosts, so far including 11 species in eight families of the Moronidae, Sciaenidae, Sparidae, Latidae, Siganidae, Belontida ...
# erythrocytes of tilapia = type: cell-based
# Method: (§3) The hemolytic activities of Nile tilapia piscidins were determined according to a previous method, [34]. In brief, erythrocytes of tilapia (2×10^7 cells) were washed three times with 0.9% NaCl and incubated with various concentrations of the peptides for 3 h at 37°C. After centrifugation, the absorbance at 545 nm of the suspension was determined. Erythrocytes in PBS (Ablank) and 0.1% Triton X-100 (Atriton) respectively served as the negative and positive controls. The percentage of hemolysis was calculated according to the equation described in a previous publication. The hemolysis assay was performed in triplicate.
# human erythrocytes = type: cell-based
# Method: as §3
# Supplementary file pone.0050263.s004.tif: Figure S4 In vitro assays used HeLa (ATCC: CCL-2™), RAW264.7 (ATCC: TIB-71™), and MRC-5 (ATCC: CCL-171™) cells. Tumor cells (HeLa and RAW264.7 cells) and normal cells (MRC-5) were treated with different doses of piscidin peptides (TP1∼5) for 24 h, followed by an MTS assay. Each concentration was repeated in eight wells for three independent experiments. Results are expressed as a percentage of the survival rate of viable cells. Piscidin treatment affected cell viability in a dose-dependent manner. There were significant differences between treatment groups for TP4 and TP3. Data are from three separate experiments. Hemolytic activities of TP1∼5 against human erythrocytes. […]
Substance,MIC (S. agalactiae 819) [µg/mL],MIC (S. agalactiae BCRC 10787) [µg/mL],MIC (P. aeruginosa ATCC 19660) [µg/mL],MIC (V. alginolyticus) [µg/mL],MIC (A. hydrophila BCRC 13018) [µg/mL],MIC (V. vulnificus 204) [µg/mL],MIC (E. faecalis BCRC 10066) [µg/mL],MIC [1] [µM],concentration at which the hemolytic effect began (erythrocytes of tilapia) [ng/mL],concentration at which the hemolytic effect began (human erythrocytes) [ng/mL],hemolytic activity toward human erythrocytes (human erythrocytes)
FDWDSVLKGVEGFVRGYF-NH2 [TP1],>23.57,>23.57,>23.57,>23.57,>23.57,>23.57,>23.57,,,,
"FFHHIFRGIVHVGKTIHRLVTG [piscidin 1, synthetic piscidin 1, literature values]",,,,,,,,3.1,,,
FIHHIIGGLFSAGKAIHRLIRRRRR-NH2 [TP4],2.10,0.13,0.52,0.03,1.05,0.03,8.39,,400 to 800,400 to 800,
FIHHIIGGLFSVGKHIHSLIHGH-NH2 [TP3],9.78,0.61,>19.55,2.44,>19.55,2.44,19.55,,,,low hemolytic activity
"FIHHIIGWISHGVRAIHRAIHG-NH2 [cod Pis 1, reference compound]",9.89,0.31,>19.78,1.24,19.78,0.62,9.89,,,,
GECIWDAIFHGAKHFLHRLVNP-NH2 [TP2],>19.52,>19.52,>19.52,>19.52,>19.52,>19.52,>19.52,,,,
"GFIFHIIKGLFHAGKMIHGLV-NH2 [Epi-1, epinecidin-1, reference compound]",>21.41,0.33,10.70,2.68,>21.41,0.67,>21.41,,,,
QLQGKQVSGEVVQKVLQELIQSVAKP-NH2 [TP5],>17.64,>17.64,>17.64,>17.64,>17.64,>17.64,>17.64,,,,
